Data as given in US8674064B2, “Immunogenic compositions against human progastrin peptides” (Onkologix Ltd, priority 2010, dated 2014).
Ends that are not written are not given here.

Tests used:
huG17 [1] = assay: ELISA antibody responses in mice after immunization with peptide-carrier conjugates; format: in vivo; conditions: three immunizations, FIG. 1
Method: FIG. 1 depicts antibody responses in mice as measured by ELISA and are in response to three immunizations with immunogens comprising each of the conjugates hG18-TT, hG18-DT, hG21-TT and hG21-DT (A, B, C and D, respectively).
(§1) The conjugate may be characterized as to immunomimic peptide content by a number of methods known to those skilled in the art including weight gain, amino acid analysis, etc. Conjugates of peptides G18 and G21 to TT produced by these methods were determined by amino acid analysis to have 10-30 moles of peptide per 104-106 MW of TT and all were considered suitable as immunogens for immunization of test animals. Similarly DT conjugates of G18 and G21, were prepared in the same manner to determine ELISA titers using huG17 as the substrate for assay of antibody binding.
The inventors constructed conjugates comprising each of the G18 and G21 peptides listed in Example 1 linked to TT and DT, as described in Examples 1 and 2. They then immunized six mice with the peptide G18 immunogen (FIGS. 1A, B) and six mice with the peptide G21 immunogen (FIGS. 1C, D).

huG17 [2] = assay: ELISA antibody responses in rabbits after immunization with peptide-carrier conjugates; format: in vivo; conditions: one administration, FIG. 2
Method: FIG. 2 depicts antibody responses in rabbits, as measured by ELISA, with one administration of a conjugate constructed with peptide 1 (hG18-TT) and peptide 2 (hG21-TT) of Examples 1 and Example 2 below, per A and B, respectively.
as §1
The inventors constructed conjugates comprising each of the G18 and G21 peptides, supra, linked to TT and DT as described in Examples 1 and 2. They then immunized four rabbits with the G18 immunogen (FIG. 2A) and four rabbits with the G21 immunogen (FIG. 2B).

[3] = test system: human gastric cancer cells (BCG-823); conditions: in vivo

Cys-pro-Pro-Pro-Pro-Ser-Ser-Gly-Trp-Met-Asp-nPhe-Gly-Arg-Arg-Ser-Ala-Glu-Asp-Glu-Asn (CPPPPSSGWMDFGRRSAEDEN; not fully specified (residues 2, 12); printed as Cys-pro-Pro-Pro-Pro-Ser-Ser-Gly-Trp-Met-Asp-nPhe-Gly-Arg-Arg-Ser-Ala-Glu-Asp-Glu-Asn) [Peptide 1]
effective: potency, eliciting of antibody and duration of the antibody responses induced (ELISA) (huG17 [1]) | potency, eliciting of antibody and duration of the antibody responses induced (ELISA) (huG17 [2]) | antibody responses effective in the presence of conventional gastric cancer chemotherapies [3] | inhibiting the growth of human gastric cancer cells [3]

pGlu-Gly-Pro-Trp-isoVal-Glu-Glu-Glu-Glu-Glu-Ala-Ser-Ser-Pro-Pro-Pro-pro-Cys (EGPWVEEEEEASSPPPPC; not fully specified (residues 1, 5, 17); printed as pGlu-Gly-Pro-Trp-isoVal-Glu-Glu-Glu-Glu-Glu-Ala-Ser-Ser-Pro-Pro-Pro-pro-Cys) [Peptide 2]
effective: potency, eliciting of antibody and duration of the antibody responses induced (ELISA) (huG17 [1]) | potency, eliciting of antibody and duration of the antibody responses induced (ELISA) (huG17 [2]) | antibody responses effective in the presence of conventional gastric cancer chemotherapies [3] | inhibiting the growth of human gastric cancer cells [3]
